The test system of data set [1] is Plasmodium berghei. In words: Antimalarial activity against Plasmodium berghei infected in mouse assessed as cure at 10 mg/kg measured at 60 days post-infection. Also noted: dose 10 mg/kg. The data set is classed as functional, organism-based.
Data set [2] relates to Mus musculus. In words: Toxicity in mouse infected with Plasmodium berghei at 320 mg/kg. The data set is classed as organism-based. More on the design: dose 320 mg/kg. The settings on record: in vivo.
In data set [3] the test system is Mus musculus. The experiment in a line: Toxicity in mouse infected with Plasmodium berghei at 640 mg/kg. The data set is classed as organism-based. Also noted: dose 640 mg/kg. To be noted: in vivo.
The test system of data set [4] is Plasmodium cynomolgi. In words: Antimalarial activity against Plasmodium cynomolgi infected in rhesus monkey assessed as curative activity at 1 mg/kg administered daily for 7 days. The data set is classed as functional, organism-based. More on the design: dose 1 mg/kg.
The test system of data set [5] is Mus musculus. The experiment in a line: Toxicity in mouse infected with Plasmodium berghei at 160 mg/kg. The settings on record: in vivo. Also noted: dose 160 mg/kg. The data set is classed as organism-based.
In data set [6] the test system is Plasmodium berghei. The experiment in a line: Antimalarial activity against Plasmodium berghei infected in mouse assessed as cure at 40 mg/kg measured at 60 days post-infection. Also noted: dose 40 mg/kg. Format: functional, organism-based.
Data set [7] concerns Plasmodium berghei. The experiment in a line: Antimalarial activity against Plasmodium berghei infected in mouse assessed as cure at 80 mg/kg measured at 60 days post-infection. Also noted: dose 80 mg/kg. Format: functional, organism-based.
The subject of data set [8] is Plasmodium berghei. In words: Antimalarial activity against Plasmodium berghei infected in mouse assessed as cure at 160 mg/kg measured at 60 days post-infection. The data set is classed as functional, organism-based. More on the design: dose 160 mg/kg.
In data set [9] the test system is Plasmodium berghei. The experiment in a line: Antimalarial activity against Plasmodium berghei infected in mouse assessed as cure at 320 mg/kg measured at 60 days post-infection. Format: functional, organism-based. More on the design: dose 320 mg/kg.
The subject of data set [10] is Plasmodium berghei. In words: Antimalarial activity against Plasmodium berghei infected in mouse assessed as cure at 640 mg/kg measured at 60 days post-infection. More on the design: dose 640 mg/kg. The data set is classed as functional, organism-based.
Data set [11] concerns Plasmodium berghei. The experiment in a line: Antimalarial activity against Plasmodium berghei infected in mouse assessed as survival time at 5 mg/kg (reference value: 6.1 days). The data set is classed as functional.
For data set [12], the system named is Plasmodium berghei. In words: Antimalarial activity against Plasmodium berghei infected in mouse assessed as survival time at 20 mg/kg (reference value: 6.1 days). Format: functional.
Data set [13] deals with Plasmodium berghei. The experiment in a line: Antimalarial activity against Plasmodium berghei infected in mouse assessed as cure at 20 mg/kg measured at 60 days post-infection. Format: functional, organism-based. Also noted: dose 20 mg/kg.
The test system of data set [14] is Plasmodium cynomolgi. In words: Antimalarial activity against Plasmodium cynomolgi infected in rhesus monkey assessed as curative activity at 0.1 mg/kg administered daily for 7 days. Also noted: dose 0.1 mg/kg. Format: functional, organism-based.
The test system of data set [15] is Plasmodium cynomolgi. The experiment in a line: Antimalarial activity against Plasmodium cynomolgi infected in rhesus monkey assessed as curative activity at 0.316 mg/kg administered daily for 7 days. Format: functional, organism-based. Also noted: dose 0.316 mg/kg.
Data set [16] deals with Plasmodium berghei. The experiment in a line: Antimalarial activity against Plasmodium berghei infected in mouse assessed as cure at 5 mg/kg measured at 60 days post-infection. Format: functional, organism-based. More on the design: dose 5 mg/kg.

Calls of active or inactive are those of the source. The rule behind the calls is not given here.

Regarding `COc1cc(NC(C)CCCN)c2nccc(C)c2c1OCCCc1ccccc1.O=C(O)/C=C/C(=O)O` (configuration not stated), the outcome in [1] and in data set [4] was Active. Besides, the Activity entry in [2], in data set [3] and in data set [5] was “Toxic” throughout.

Consider `COc1cc(NC(C)CCCN)c2nccc(C)c2c1OCCCCCCCCc1ccccc1.O=C(O)/C=C/C(=O)O` (configuration not stated), for which the result in data set [6], in [7], in [8], in data set [9] and in [10] was Active. Also, the MST in [11] was 5.7 days.

`COc1cc(NC(C)CCCN)c2nccc(C)c2c1OCCCCCCCCCc1ccccc1.O=C(O)/C=C/C(=O)O` (configuration not stated): the result in data set [8], in [9] and in data set [10] was Active. The MST in [12] came out at 8.5 days.

As for `COc1cc(NC(C)CCCN)c2nccc(C)c2c1OCCCCCCCc1ccccc1` (configuration not stated), the outcome in data set [1], in [13], in data set [6], in [7], in data set [8] and in [9] was Active. For the same compound, the outcome in data set [10] and in [4] was Active. Moreover, the outcome in data set [14] and in [15] was inactive.

As to `COc1cc(NC(C)CCCN)c2nccc(C)c2c1OCCCCCc1ccccc1.O=C(O)/C=C/C(=O)O` (configuration not stated), the result in data set [6], in [7], in data set [8], in data set [15] and in data set [4] was Active. Also, in data set [11], the MST is 7.9 days.

`COc1cc(NC(C)CCCN)c2nccc(C)c2c1OCCCCCCc1ccccc1.O=C(O)/C=C/C(=O)O` (configuration not stated): the MST in data set [11] was 5.9 days. For the same compound, the outcome in [14] was inactive. Moreover, the result in data set [15] and in data set [4] was Active.

As to `COc1cc(NC(C)CCCN)c2nccc(C)c2c1OCCCCCc1ccco1.O=C(O)/C=C/C(=O)O` (configuration not stated), the result in data set [6], in data set [7] and in [8] was Active. In addition, the MST in data set [11] is 7.7 days.

With `CCCCCOc1c(OC)cc(NC(C)CCCN)c2nccc(C)c12` (configuration not stated), the outcome in [16], in [1] and in data set [4] was Active. For the same compound, the Activity entry in [2] and in data set [3] was “Toxic” each time.

`COc1cc(NC(C)CCCN)c2nccc(C)c2c1OCCCCCc1cccs1.O=C(O)/C=C/C(=O)O` (configuration not stated): the outcome in [13], in [6] and in data set [7] was Active. Further, the MST in data set [11] is 6.6 days.

Turning to `COc1cc(NC(C)CCCN)c2nccc(C)c2c1OCCCCc1ccccc1.O=C(O)/C=C/C(=O)O` (configuration not stated), the outcome in [7] and in [4] was Active. Further, in data set [11], the MST worked out at 7.6 days. The outcome in [14] was inactive.

Values taken from ChEMBL document CHEMBL3351451, “In search of next generation antimalarials” (Bioorg Med Chem Lett, 2014).
